ChEMBL document CHEMBL1201862, “PubChem BioAssay data set” (2004)
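Values below derive from 48-hour exposures of cells grown in 96-well plates, with endpoints linearly interpolated between the two concentrations bracketing the appropriate inhibition level. GI50 is the concentration that inhibits growth by half.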 Active and inactive are the calls of the source. Rule as the data show it: active = GI50 up to about 1.1 µM and inactive = higher. Peptide text beside a SMILES is read from it.

Assays:
Assay in all cases: growth of human tumour cells (NCI), 48 h
NCI-H522 = tested on: NCI-H522
SK-OV-3 = tested on: SK-OV-3
Malme-3M = tested on: Malme-3M
KM-20L2 = tested on: KM-20L2
K562 = tested on: K562
SK-MEL-28 = tested on: SK-MEL-28
M14 = tested on: M14
OVCAR-5 = tested on: OVCAR-5
HCC 2998 = tested on: HCC 2998
SF-295 = tested on: SF-295
SK-MEL-2 = tested on: SK-MEL-2
OVCAR-8 = tested on: OVCAR-8
HCT-15 = tested on: HCT-15
UACC-62 = tested on: UACC-62
SK-MEL-5 = tested on: SK-MEL-5
SF-268 = tested on: SF-268
HT-29 = tested on: HT-29
NCI/ADR-RES = tested on: NCI/ADR-RES
DU-145 = tested on: DU-145
Hs-578T = tested on: Hs-578T

SMILES	GI50 (NCI-H522)	GI50 (SK-OV-3)	GI50 (Malme-3M)	GI50 (KM-20L2)	GI50 (K562)	GI50 (SK-MEL-28)	GI50 (M14)	GI50 (OVCAR-5)	GI50 (HCC 2998)	GI50 (SF-295)	GI50 (SK-MEL-2)	GI50 (OVCAR-8)	GI50 (HCT-15) [µM]	GI50 (UACC-62)	GI50 (SK-MEL-5)	GI50 (SF-268)	GI50 (HT-29)	GI50 (NCI/ADR-RES)	GI50 (DU-145)	GI50 (Hs-578T)
O=Cc1c(O)c(C(=O)Nc2ccc3[nH]c(=O)[nH]c3c2)cc2ccccc12	> 100 µM (inactive)	> 100 µM (inactive)	> 100 µM (inactive)	> 100 µM (inactive)	> 100 µM (inactive)	> 100 µM (inactive)	> 100 µM (inactive)	> 100 µM (inactive)	> 100 µM (inactive)	> 100 µM (inactive)	> 100 µM (inactive)	> 100 µM (inactive)	> 100	> 100 µM (inactive)	> 100 µM (inactive)	> 100 µM (inactive)	> 100 µM (inactive)	–	–	–
C=C(C)C12CC3CC(/C(=N/O)C(C1)/C3=N\O)[C@@]2(C)O (some centres not stated)	> 100 µM (inactive)	> 100 µM (inactive)	> 100 µM (inactive)	> 100 µM (inactive)	> 100 µM (inactive)	> 100 µM (inactive)	> 100 µM (inactive)	> 100 µM (inactive)	> 100 µM (inactive)	> 100 µM (inactive)	> 100 µM (inactive)	> 100 µM (inactive)	> 100	> 100 µM (inactive)	> 100 µM (inactive)	> 100 µM (inactive)	> 100 µM (inactive)	–	–	–
CCOC(=O)C(=O)Nc1c(C)cccc1C(C)(C)C	> 100 µM (inactive)	> 100 µM (inactive)	> 100 µM (inactive)	> 100 µM (inactive)	> 100 µM (inactive)	> 100 µM (inactive)	> 100 µM (inactive)	> 100 µM (inactive)	> 100 µM (inactive)	> 100 µM (inactive)	> 100 µM (inactive)	> 100 µM (inactive)	> 100	> 100 µM (inactive)	> 100 µM (inactive)	> 100 µM (inactive)	> 100 µM (inactive)	–	–	–
O=C1COc2cc(NC(=S)Nc3ccccc3)ccc2N1	> 100 µM (inactive)	> 100 µM (inactive)	> 100 µM (inactive)	> 100 µM (inactive)	> 100 µM (inactive)	> 100 µM (inactive)	> 100 µM (inactive)	> 100 µM (inactive)	> 100 µM (inactive)	> 100 µM (inactive)	> 100 µM (inactive)	> 100 µM (inactive)	> 100	> 100 µM (inactive)	> 100 µM (inactive)	> 100 µM (inactive)	> 100 µM (inactive)	–	–	–
C=C1C(=O)OC2CCCCC3OC3C12 (configuration not stated)	1.87 µM (inactive)	16.5 µM (inactive)	10.7 µM (inactive)	10.1 µM (inactive)	12.3 µM (inactive)	10.9 µM (inactive)	7.16 µM (inactive)	18.2 µM (inactive)	11.7 µM (inactive)	23.2 µM (inactive)	12 µM (inactive)	15.9 µM (inactive)	6.9	3.56 µM (inactive)	3.99 µM (inactive)	13.8 µM (inactive)	14.4 µM (inactive)	–	–	–
Cc1cc(NC(=O)NC(=O)c2ccccc2N)ccc1Oc1ncc(Br)cn1	< 0.01 µM (active)	0.0103 µM (active)	< 0.01 µM (active)	0.016 µM (active)	< 0.01 µM (active)	< 0.01 µM (active)	0.0117 µM (active)	0.0396 µM (active)	0.0154 µM (active)	< 0.01 µM (active)	< 0.01 µM (active)	0.0217 µM (active)	< 0.0107	0.0347 µM (active)	< 0.01 µM (active)	0.0163 µM (active)	< 0.0103 µM (active)	< 0.01 µM (active)	0.0125 µM (active)	< 0.01 µM (active)
O=C(O)C1OC(n2cc(F)c(=O)[nH]c2=O)CC1O (configuration not stated)	25.9 µM (inactive)	> 94.8 µM (inactive)	> 100 µM (inactive)	23.8 µM (inactive)	> 86.1 µM (inactive)	53.1 µM (inactive)	29.4 µM (inactive)	> 100 µM (inactive)	0.574 µM (active)	5.47 µM (inactive)	> 100 µM (inactive)	17.5 µM (inactive)	77.4	6.15 µM (inactive)	32.4 µM (inactive)	3.35 µM (inactive)	63.8 µM (inactive)	13.2 µM (inactive)	24.3 µM (inactive)	> 78.7 µM (inactive)
CCOC(=O)c1ccc(N[C@@H]2c3cc4c(cc3C(C3=CC(=O)C(=O)C(OC)=C3)[C@H]3C(=O)OCC32)OCO4)cc1 (some centres not stated)	4.61 µM (inactive)	2.26 µM (inactive)	2.53 µM (inactive)	6.37 µM (inactive)	2.67 µM (inactive)	7.6 µM (inactive)	2.51 µM (inactive)	4.88 µM (inactive)	4.6 µM (inactive)	1.35 µM (inactive)	2.82 µM (inactive)	2.86 µM (inactive)	2.21	1.69 µM (inactive)	2.72 µM (inactive)	1.77 µM (inactive)	4.49 µM (inactive)	–	–	–
CC(C)CC(NC(=O)C(CC(C)C)NC(=O)C(Cc1c[nH]cn1)NC(=O)C(C)NC(=O)C(NC(=O)C(C)NC(=O)C(Cc1c[nH]c2ccccc12)NC(=O)C(CCC(=O)O)NC(=O)C(N)Cc1ccccc1)C(C)C)C(N)=O (configuration not stated) (H-FEWAVAHLL-NH2; configuration not given here)	> 12.5 µM (inactive)	> 12.5 µM (inactive)	> 12.5 µM (inactive)	> 100 µM (inactive)	> 12.5 µM (inactive)	63.4 µM (inactive)	> 12.5 µM (inactive)	> 12.5 µM (inactive)	> 12.5 µM (inactive)	> 12.5 µM (inactive)	> 12.5 µM (inactive)	> 12.5 µM (inactive)	> 12.5	> 12.5 µM (inactive)	> 12.5 µM (inactive)	> 12.5 µM (inactive)	> 12.5 µM (inactive)	> 12.5 µM (inactive)	> 12.5 µM (inactive)	> 12.5 µM (inactive)
